Drawing on patent publication US20100298270A1, “Novel Compounds and Methods of Using Them” (SYNDAX PHARMACEUTICALS, INC., priority 2007, published 2010), this text covers melting point for one molecule.

What is called melting point is the temperature of the solid-liquid transition. With `O=C(NCc1ccn(O)c(=O)c1)OCc1cccnc1` [Example 14, Pyridin-3-ylmethyl (1-hydroxy-2-oxo-1,2-dihydropyridin-4-yl)methylcarbamate], the melting point stood at 145 °C.
